For one assay, the target named is Mer tyrosine kinase (Homo sapiens (Human), UniProt Q12866). The assay is described as follows: Evaluation of activity against Mer tyrosine kinase. The assay is classed as biochemical.
A further assay has as its target Tyro3 tyrosine kinase (Homo sapiens (Human), UniProt Q06418). The assay can be described thus: Evaluation of activity against Tyro3 tyrosine kinase. The class given is biochemical.

What is called IC50 is the concentration needed to halve the response being measured. Lower therefore signals inhibition by little substance.

Bounds are passed on as bounds.

Mer tyrosine kinase, sequence (Q12866 21-999): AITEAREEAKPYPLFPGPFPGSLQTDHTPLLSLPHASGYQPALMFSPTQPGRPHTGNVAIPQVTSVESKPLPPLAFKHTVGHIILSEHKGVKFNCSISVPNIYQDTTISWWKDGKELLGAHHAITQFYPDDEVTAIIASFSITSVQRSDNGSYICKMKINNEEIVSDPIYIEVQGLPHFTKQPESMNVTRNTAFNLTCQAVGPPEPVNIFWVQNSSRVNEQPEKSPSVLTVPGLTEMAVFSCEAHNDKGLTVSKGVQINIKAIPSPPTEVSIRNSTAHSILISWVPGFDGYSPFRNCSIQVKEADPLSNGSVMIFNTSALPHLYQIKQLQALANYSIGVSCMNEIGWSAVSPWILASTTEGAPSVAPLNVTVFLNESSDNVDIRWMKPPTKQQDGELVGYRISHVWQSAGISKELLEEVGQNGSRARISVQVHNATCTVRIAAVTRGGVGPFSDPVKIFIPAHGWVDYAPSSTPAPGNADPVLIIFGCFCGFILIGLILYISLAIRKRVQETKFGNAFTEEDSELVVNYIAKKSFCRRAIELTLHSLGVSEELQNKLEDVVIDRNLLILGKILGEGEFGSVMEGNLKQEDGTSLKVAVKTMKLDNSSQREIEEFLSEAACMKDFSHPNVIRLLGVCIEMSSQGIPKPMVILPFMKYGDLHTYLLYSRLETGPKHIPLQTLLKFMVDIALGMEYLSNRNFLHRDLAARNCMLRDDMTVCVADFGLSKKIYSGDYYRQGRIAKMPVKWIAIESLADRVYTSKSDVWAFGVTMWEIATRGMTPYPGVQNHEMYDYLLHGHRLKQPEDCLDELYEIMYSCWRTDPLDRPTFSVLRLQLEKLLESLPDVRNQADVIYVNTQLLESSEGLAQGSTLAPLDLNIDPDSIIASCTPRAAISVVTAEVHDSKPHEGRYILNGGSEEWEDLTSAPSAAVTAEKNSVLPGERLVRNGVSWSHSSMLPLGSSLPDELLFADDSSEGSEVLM
Tyro3 tyrosine kinase, sequence (Q06418 41-890): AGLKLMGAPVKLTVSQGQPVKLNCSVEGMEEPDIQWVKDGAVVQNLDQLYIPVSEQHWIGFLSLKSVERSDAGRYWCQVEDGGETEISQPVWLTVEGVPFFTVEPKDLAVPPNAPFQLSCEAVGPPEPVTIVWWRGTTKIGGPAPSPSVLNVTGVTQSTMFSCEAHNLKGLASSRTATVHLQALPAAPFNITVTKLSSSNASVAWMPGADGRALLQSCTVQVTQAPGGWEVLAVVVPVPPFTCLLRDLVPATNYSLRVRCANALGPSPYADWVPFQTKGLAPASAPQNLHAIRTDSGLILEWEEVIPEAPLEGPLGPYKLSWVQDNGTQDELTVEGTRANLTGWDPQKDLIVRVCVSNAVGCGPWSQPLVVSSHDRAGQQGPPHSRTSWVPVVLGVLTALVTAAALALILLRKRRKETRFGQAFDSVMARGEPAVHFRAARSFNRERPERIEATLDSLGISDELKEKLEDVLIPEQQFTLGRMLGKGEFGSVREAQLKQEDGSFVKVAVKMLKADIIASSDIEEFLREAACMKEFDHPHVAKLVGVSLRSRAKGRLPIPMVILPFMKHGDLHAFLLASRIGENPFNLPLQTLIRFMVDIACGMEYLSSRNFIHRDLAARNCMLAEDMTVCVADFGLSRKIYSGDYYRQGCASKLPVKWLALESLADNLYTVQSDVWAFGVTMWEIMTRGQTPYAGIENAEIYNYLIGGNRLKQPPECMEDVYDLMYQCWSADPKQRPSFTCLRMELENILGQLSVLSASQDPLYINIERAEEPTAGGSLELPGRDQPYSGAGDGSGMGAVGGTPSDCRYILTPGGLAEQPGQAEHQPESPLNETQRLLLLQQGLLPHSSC

In the case of `CCC[C@H](C)Nc1ncc2c(C3CCN(C(=O)C4CCN(C)C4)CC3)cn([C@H]3CC[C@H](O)CC3)c2n1` (stereo partly drawn) [compound 18, (4-(7-((1R,4S)-4-hydroxycyclohexyl)-2-(((S)-pentan-2-yl)amino)-7H-pyrrolo[2,3-d]pyrimidin-5-yl)piperidin-1-yl)(1-methylpyrrolidin-3-yl)methanone], the IC50 at Mer tyrosine kinase is < 10 nM; on Tyro3 tyrosine kinase, 10 to 100 nM.

Consider `CCC[C@H](C)Nc1ncc2c(C3CCN(C(=O)c4ccc(OC)cc4)CC3)cn([C@H]3CC[C@H](O)CC3)c2n1` [compound 31, (4-(7-((1R,4S)-4-hydroxycyclohexyl)-2-(((S)-pentan-2-yl)amino)-7H-pyrrolo[2,3-d]pyrimidin-5-yl)piperidin-1-yl)(4-methoxyphenyl)methanone], for which the figures for the IC50 on Mer tyrosine kinase and against Tyro3 tyrosine kinase were < 10 nM and 100 to 1000 nM, respectively.
